Laboratory results from US20260256792A1, “TREATMENT OF CHRONIC SPONTANEOUS URTICARIA BY ADMINISTERING (R)-2-[3-[4-AMINO-3-(2-FLUORO-4-PHENOXY-PHENYL)PYRAZOLO[3,4-D]PYRIMIDIN-1-YL]PIPERIDINE-1-CARBONYL]-4-METHYL-4-[4-(OXETAN-3-YL)PIPERAZIN-1-YL]PENT-2-ENENITRILE” (priority 2023, published 2026).

System: moderate-to-severe chronic spontaneous urticaria (CSU)
Assay: Phase 2 CSU study: urticaria activity score over 7 days (UAS7)
Type: in vivo, human
Conditions: for Change from Baseline in UAS7 at Week 12: Mean (SD) / Change from Baseline in UAS7 at Week 12: LS Mean Diff vs. placebo (95% CI) / Change from Baseline in UAS7 at Week 12: LS Mean (SE): Omalizumab-Naïve; for Imputed non-responder n (%), UAS7 = 0 / Imputed non-responder n (%), UAS7 ≤6 / Non-responder n (%), UAS7 = 0 / Non-responder n (%), UAS7 ≤6 / OR for rilzabrutinib vs. placebo, UAS7 = 0 / OR for rilzabrutinib vs. placebo, UAS7 ≤6 / RRD (%) for rilzabrutinib vs. placebo, UAS7 = 0 / RRD (%) for rilzabrutinib vs. placebo, UAS7 ≤6 / Responder n (%), UAS7 = 0 / Responder n (%), UAS7 ≤6: Omalizumab-naïve
From the text: The study comprises a 12 week, randomized, double-blind, placebo-controlled, multi-center, dose-ranging efficacy and safety phase, followed by a 40 week open label extension (OLE) phase (see FIG. 1). The study consists of three phases and an optional OLE phase. […] Clinically, CSU is characterized by the spontaneous and recurrent appearance of pruritic hives. The proposed primary endpoints were the UAS7 at Week 12 in EU and EU reference countries and the ISS7 in the US. Regardless of where a participant was from, all assessments were the same. The UAS7 score is a composite score containing both the HSS7 and the ISS7. This allowed a global assessment of the two key components of urticaria: hives and itch. […] The UAS is a validated PRO measure. […] The daily UAS scores range from 0 to 6 point/day. […] Patients were to complete the UAS using the e-diary. […] The following secondary endpoints were to be analyzed using the same approach as for the primary endpoint: • Change from baseline in UAS7 at Week 4 • Change from baseline in UAS7 at Week 12 (for US and US reference countries) • Change from baseline in ISS7 at Week 12 (except US and US reference countries) • Change from baseline in HSS7 at Week 12 The following responder secondary endpoints were to be analyzed using the Cochran-Mantel-Haenszel test adjusted by region: • Proportion of participants with UAS7<6 at Week 12 • Proportion of participants with UAS7=0 at Week 12 Participants who received selected prohibited medications and/or rescue medications were to be considered as non-responders for time points after the medication usage. For other participants, all available data including those collected during the off-treatment period were to be used to determine the responder/non-responder status. Missing data were to be considered as non-responders.

[1] = Region Latin America, 400 mg TID
[2] = Region Western Countries, 400 mg BID
[3] = Region Western Countries, 400 mg QPM
[4] = Region Western Countries, 400 mg TID

SMILES: CC(C)(C=C(C#N)C(=O)N1CCC[C@@H](n2nc(-c3ccc(Oc4ccccc4)cc3F)c3c(N)ncnc32)C1)N1CCN(C2COC2)CC1 [rilzabrutinib, (R)-2-[3-[4-amino-3-(2-fluoro-4-phenoxy-phenyl)pyrazolo[3,4-d]pyrimidin-1-yl]piperidine-1-carbonyl]-4-methyl-4-[4-(oxetan-3-yl)piperazin-1-yl]pent-2-enenitrile]
- Change from Baseline in UAS7 at Week 12: Mean (SD) (Region Latin America, 400 mg QPM): −13.28 (10.78)
- Change from Baseline in UAS7 at Week 12: LS Mean Diff vs. placebo (95% CI) [1]: 0.38 (−10.12, 10.88)
- Change from Baseline in UAS7 at Week 12: Mean (SD) [1]: −14.07 (12.07)
- Change from Baseline in UAS7 at Week 12: LS Mean (SE) [2]: −20.19 (3.23)
- Change from Baseline in UAS7 at Week 12: LS Mean Diff vs. placebo (95% CI) [2]: −12.21 (−21.37, −3.06)
- Change from Baseline in UAS7 at Week 12: Mean (SD) [2]: −20.62 (10.65)
- Change from Baseline in UAS7 at Week 12: LS Mean (SE) [3]: −8.74 (4.03)
- Change from Baseline in UAS7 at Week 12: Mean (SD) [3]: −10.70 (8.61)
- Change from Baseline in UAS7 at Week 12: LS Mean (SE) [4]: −19.49 (3.03)
- Change from Baseline in UAS7 at Week 12: Mean (SD) [4]: −23.13 (10.61)
- Imputed non-responder n (%), UAS7 = 0 (400 mg BID, Week 1): 0 n (%)
- Imputed non-responder n (%), UAS7 ≤6 (400 mg BID, Week 1): 0 n (%)
- Non-responder n (%), UAS7 = 0 (400 mg BID, Week 1): 32 (91.4) n (%)
- Non-responder n (%), UAS7 ≤6 (400 mg BID, Week 1): 29 (82.9) n (%)
- OR for rilzabrutinib vs. placebo, UAS7 = 0 (400 mg BID, Week 1): 3.242
- OR for rilzabrutinib vs. placebo, UAS7 ≤6 (400 mg BID, Week 1): 3.183
- RRD (%) for rilzabrutinib vs. placebo, UAS7 = 0 (400 mg BID, Week 1): 5.6 %
- RRD (%) for rilzabrutinib vs. placebo, UAS7 ≤6 (400 mg BID, Week 1): 9.9 %
- Responder n (%), UAS7 = 0 (400 mg BID, Week 1): 3 (8.6) n (%)
- Responder n (%), UAS7 ≤6 (400 mg BID, Week 1): 6 (17.1) n (%)
- Imputed non-responder n (%), UAS7 = 0 (400 mg BID, Week 2): 1 (2.9) n (%)
- Imputed non-responder n (%), UAS7 ≤6 (400 mg BID, Week 2): 1 (2.9) n (%)
- Non-responder n (%), UAS7 = 0 (400 mg BID, Week 2): 33 (94.3) n (%)
- Non-responder n (%), UAS7 ≤6 (400 mg BID, Week 2): 31 (88.6) n (%)
- OR for rilzabrutinib vs. placebo, UAS7 = 0 (400 mg BID, Week 2): 2.024
- OR for rilzabrutinib vs. placebo, UAS7 ≤6 (400 mg BID, Week 2): 1.917
- RRD (%) for rilzabrutinib vs. placebo, UAS7 = 0 (400 mg BID, Week 2): 2.5 %
- RRD (%) for rilzabrutinib vs. placebo, UAS7 ≤6 (400 mg BID, Week 2): 4.4 %
- Responder n (%), UAS7 = 0 (400 mg BID, Week 2): 2 (5.7) n (%)
- Responder n (%), UAS7 ≤6 (400 mg BID, Week 2): 4 (11.4) n (%)
- Imputed non-responder n (%), UAS7 = 0 (400 mg BID, Week 3): 0 n (%)
- Imputed non-responder n (%), UAS7 ≤6 (400 mg BID, Week 3): 0 n (%)
- Non-responder n (%), UAS7 = 0 (400 mg BID, Week 3): 32 (91.4) n (%)
- Non-responder n (%), UAS7 ≤6 (400 mg BID, Week 3): 27 (77.1) n (%)
- OR for rilzabrutinib vs. placebo, UAS7 = 0 (400 mg BID, Week 3): 3.036
- OR for rilzabrutinib vs. placebo, UAS7 ≤6 (400 mg BID, Week 3): 2.894
- RRD (%) for rilzabrutinib vs. placebo, UAS7 = 0 (400 mg BID, Week 3): 5.0 %
- RRD (%) for rilzabrutinib vs. placebo, UAS7 ≤6 (400 mg BID, Week 3): 13.3 %
- Responder n (%), UAS7 = 0 (400 mg BID, Week 3): 3 (8.6) n (%)
- Responder n (%), UAS7 ≤6 (400 mg BID, Week 3): 8 (22.9) n (%)
- Imputed non-responder n (%), UAS7 = 0 (400 mg BID, Week 4): 2 (5.7) n (%)
- Imputed non-responder n (%), UAS7 ≤6 (400 mg BID, Week 4): 2 (5.7) n (%)
- Non-responder n (%), UAS7 = 0 (400 mg BID, Week 4): 32 (91.4) n (%)
- Non-responder n (%), UAS7 ≤6 (400 mg BID, Week 4): 25 (71.4) n (%)
- OR for rilzabrutinib vs. placebo, UAS7 = 0 (400 mg BID, Week 4): 1.372
- OR for rilzabrutinib vs. placebo, UAS7 ≤6 (400 mg BID, Week 4): 2.950
- RRD (%) for rilzabrutinib vs. placebo, UAS7 = 0 (400 mg BID, Week 4): 1.9 %
- RRD (%) for rilzabrutinib vs. placebo, UAS7 ≤6 (400 mg BID, Week 4): 15.8 %
- Responder n (%), UAS7 = 0 (400 mg BID, Week 4): 3 (8.6) n (%)
- Responder n (%), UAS7 ≤6 (400 mg BID, Week 4): 10 (28.6) n (%)
- Imputed non-responder n (%), UAS7 = 0 (400 mg BID, Week 5): 2 (5.7) n (%)
- Imputed non-responder n (%), UAS7 ≤6 (400 mg BID, Week 5): 2 (5.7) n (%)
- Non-responder n (%), UAS7 = 0 (400 mg BID, Week 5): 31 (88.6) n (%)
- Non-responder n (%), UAS7 ≤6 (400 mg BID, Week 5): 25 (71.4) n (%)
- OR for rilzabrutinib vs. placebo, UAS7 = 0 (400 mg BID, Week 5): 4.254
- OR for rilzabrutinib vs. placebo, UAS7 ≤6 (400 mg BID, Week 5): 6.525
- RRD (%) for rilzabrutinib vs. placebo, UAS7 = 0 (400 mg BID, Week 5): 8.1 %
- RRD (%) for rilzabrutinib vs. placebo, UAS7 ≤6 (400 mg BID, Week 5): 21.1 %
- Responder n (%), UAS7 = 0 (400 mg BID, Week 5): 4 (11.4) n (%)
- Responder n (%), UAS7 ≤6 (400 mg BID, Week 5): 10 (28.6) n (%)
- Imputed non-responder n (%), UAS7 = 0 (400 mg BID, Week 6): 2 (5.7) n (%)
- Imputed non-responder n (%), UAS7 ≤6 (400 mg BID, Week 6): 2 (5.7) n (%)
- Non-responder n (%), UAS7 = 0 (400 mg BID, Week 6): 31 (88.6) n (%)
- Non-responder n (%), UAS7 ≤6 (400 mg BID, Week 6): 26 (74.3) n (%)
- OR for rilzabrutinib vs. placebo, UAS7 = 0 (400 mg BID, Week 6): 4.048
- OR for rilzabrutinib vs. placebo, UAS7 ≤6 (400 mg BID, Week 6): 1.743
